The values that follow come from US9340536B2, “Multicomponent crystals comprising dasatinib and selected co-crystal formers” (BASF SE, priority 2012, dated 2016).

Values after ≈ are worked out from the molar mass of the structure shown.

The conditions of series [1]: estimated by Roy et al., Cryst. Growth & Design 2012 (12), 2122-2126; cited from earlier work.
The nature of series [2]: Aqueous solubility determination (suspension in pure water, HPLC). Conditions: 25 °C.
Procedure: Solubility Determinations:
Solubility determinations were carried out in pure water at 25±2° C. Suspensions with about 10 mg co-crystal in 0.5 mL water were prepared an equilibrated for two hours before the solution phase was filtered off and tested by HPLC.
HPLC was carried out on an Agilent 1100 HPLC chromatograph equipped with a UV-vis detection unit. […] The column type used was a Waters XTerra MS C18, 250×4.6 mm, 5 μm (FK-CC14). The method as referenced above is an isocratic method using an aqueous ammonium acetate/acetic acid and methanol with a ratio of 55/45. The applied flow rate was 1.0 mL per minute, the injection volume was 20 microliter and the detection wavelength was 321 nm.

In general, solubility refers to how much of the substance goes into solution per volume. With `Cc1nc(Nc2ncc(C(=O)Nc3c(C)cccc3Cl)s2)cc(N2CCN(CCO)CC2)n1` [Dasatinib free base anhydrous form, N-(2-chloro-6-methylphenyl)-2-[[6-[4-(2-hydroxyethyl)-1-piperazinyl]-2-methyl-4-pyrimidinyl]amino]-5-thiazolecarboxamide], the “ratio of the equilibrium solubility of anhydrous Dasatinib free base to Dasatinib monohydrate free base” value in series [1] is “about 2.4”. In series [2], this molecule returned a solubility of approximately 0.9 µg/mL (≈ 1.84 µM).
`Cc1nc(Nc2ncc(C(=O)Nc3c(C)cccc3Cl)s2)cc(N2CCN(CCO)CC2)n1` [Dasatinib free base monohydrate, N-(2-chloro-6-methylphenyl)-2-[[6-[4-(2-hydroxyethyl)-1-piperazinyl]-2-methyl-4-pyrimidinyl]amino]-5-thiazolecarboxamide]: the solubility at 2 h in series [2] (pure water, thermodynamic from solid) stood at 0.36 µg/mL.
